Results published in ChEMBL document CHEMBL1201862, “PubChem BioAssay data set” (2004).
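Results reflect a 48-hour exposure of cells in 96-well plates to compound at five concentrations. Abbreviation: GI50, concentration required for 50% inhibition of growth.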 The source made the active and inactive calls. Cut-off read from the data, not from the text of the source: active = GI50 up to about 1.1 µM and inactive = higher.

Experiments:
Test in all cases: NCI-60 cell line screen, 48 h
786-0 = system: 786-0
A549 = system: A549
ACHN = system: ACHN
CAKI-1 = system: CAKI-1
COLO 205 = system: COLO 205
DLD-1 = system: DLD-1
HCC 2998 = system: HCC 2998
HCT-116 = system: HCT-116
HOP-18 = system: HOP-18
HOP-62 = system: HOP-62
HOP-92 = system: HOP-92
HT-29 = system: HT-29
IGROV-1 = system: IGROV-1
KM-20L2 = system: KM-20L2
LXFL 529 = system: LXFL 529
M14 = system: M14
M19-MEL = system: M19-MEL
MOLT-4 = system: MOLT-4
Malme-3M = system: Malme-3M
NCI-H226 = system: NCI-H226
NCI-H460 = system: NCI-H460
OVCAR-4 = system: OVCAR-4
OVCAR-5 = system: OVCAR-5
RPMI-8226 = system: RPMI-8226
SK-MEL-28 = system: SK-MEL-28
SK-MEL-2 = system: SK-MEL-2
SK-MEL-5 = system: SK-MEL-5
SK-OV-3 = system: SK-OV-3
SNB-19 = system: SNB-19
SNB-75 = system: SNB-75
SNB-78 = system: SNB-78
SW-620 = system: SW-620
U-251 = system: U-251
UACC-257 = system: UACC-257
UACC-62 = system: UACC-62
UO-31 = system: UO-31
A498 = system: A498
CCRF-CEM = system: CCRF-CEM
DMS-114 = system: DMS-114
HCT-15 = system: HCT-15
HL-60 = system: HL-60
K562 = system: K562
KM12 = system: KM12
LOX IMVI = system: LOX IMVI
NCI-H23 = system: NCI-H23
NCI-H522 = system: NCI-H522
OVCAR-3 = system: OVCAR-3
OVCAR-8 = system: OVCAR-8
SF-268 = system: SF-268
SF-295 = system: SF-295
SF-539 = system: SF-539
SN12C = system: SN12C
SR = system: SR
TK-10 = system: TK-10
DMS-273 = system: DMS-273

Measured: GI50

CC(NC1CCCC[C@H]1O)c1ccccc1 (stereo partly specified)
inactive: 786-0 > 100 µM | A549 > 100 µM | ACHN > 100 µM | CAKI-1 > 100 µM | COLO 205 > 100 µM | DLD-1 > 100 µM | HCC 2998 > 100 µM | HCT-116 > 100 µM | HOP-18 > 100 µM | HOP-62 > 100 µM | HOP-92 > 100 µM | HT-29 > 100 µM | IGROV-1 > 100 µM | KM-20L2 > 100 µM | LXFL 529 > 100 µM | M14 > 100 µM | M19-MEL > 100 µM | MOLT-4 > 100 µM | Malme-3M > 100 µM | NCI-H226 > 100 µM | NCI-H460 > 100 µM | OVCAR-4 > 100 µM | OVCAR-5 > 100 µM | RPMI-8226 > 100 µM | SK-MEL-28 > 100 µM | SK-MEL-2 > 100 µM | SK-MEL-5 > 100 µM | SK-OV-3 > 100 µM | SNB-19 > 100 µM | SNB-75 > 100 µM | SNB-78 > 100 µM | SW-620 > 100 µM | U-251 > 100 µM | UACC-257 > 100 µM | UACC-62 > 100 µM | UO-31 > 100 µM

O=C(Nc1c(O)[nH]c(=S)[nH]c1=O)c1ccco1
> 100 µM: HCT-15
inactive: 786-0 > 100 µM | A498 > 100 µM | A549 > 100 µM | ACHN > 100 µM | CAKI-1 > 100 µM | CCRF-CEM > 100 µM | COLO 205 > 100 µM | DMS-114 > 100 µM | HCT-116 > 100 µM | HL-60 > 100 µM | HOP-18 > 100 µM | HOP-62 > 100 µM | HOP-92 38.9 µM | HT-29 > 100 µM | IGROV-1 > 100 µM | K562 > 100 µM | KM-20L2 > 100 µM | KM12 > 100 µM | LOX IMVI > 100 µM | LXFL 529 > 100 µM | M14 > 100 µM | M19-MEL > 100 µM | MOLT-4 > 100 µM | Malme-3M > 100 µM | NCI-H226 > 100 µM | NCI-H23 > 100 µM | NCI-H460 > 100 µM | NCI-H522 > 100 µM | OVCAR-3 > 100 µM | OVCAR-4 > 100 µM | OVCAR-5 > 100 µM | OVCAR-8 > 100 µM | RPMI-8226 > 100 µM | SF-268 > 100 µM | SF-295 > 100 µM | SF-539 > 100 µM | SK-MEL-28 > 100 µM | SK-MEL-2 > 100 µM | SK-MEL-5 > 100 µM | SK-OV-3 > 100 µM | SN12C > 100 µM | SNB-19 > 100 µM | SNB-75 > 100 µM | SNB-78 > 100 µM | SR > 100 µM | SW-620 > 100 µM | TK-10 > 100 µM | U-251 > 100 µM | UACC-257 > 100 µM | UACC-62 > 100 µM | UO-31 > 100 µM

COc1ccc(C(=O)C(C(=O)CCC(=O)Nc2ccc(C)c(C)c2)c2ccc(OC)cc2)cc1 (stereo unspecified)
inactive: CAKI-1 > 100 µM | COLO 205 > 100 µM | DMS-114 > 100 µM | DMS-273 > 100 µM | HCC 2998 > 100 µM | HCT-116 > 100 µM | HL-60 > 100 µM | HOP-18 > 100 µM | HOP-62 > 100 µM | HOP-92 48.9 µM | HT-29 > 100 µM | KM-20L2 > 100 µM | KM12 > 100 µM | LOX IMVI > 100 µM | LXFL 529 > 100 µM | M14 > 100 µM | M19-MEL > 100 µM | Malme-3M > 100 µM | NCI-H226 > 100 µM | NCI-H460 > 100 µM | OVCAR-3 > 100 µM | OVCAR-4 > 100 µM | OVCAR-5 > 100 µM | OVCAR-8 > 100 µM | SF-295 > 100 µM | SK-MEL-2 > 100 µM | SN12C > 100 µM | SNB-19 > 10 µM | SR > 100 µM | SW-620 > 100 µM | UACC-257 > 100 µM | UO-31 > 100 µM
> 100 µM: HCT-15
